# Measured values: patent publication US20230085307A1, “PYRIDAZINONE COMPOUND AND HERBICIDE” (NISSAN CHEMICAL CORPORATION, priority 2019, published 2023)
# How the values were obtained:
# barnyard grass [1] = assay: Test Example 5: herbicidal effect by foliage application, plastic box (Table 20, symbol H); assay type: in vivo, barnyard grass (Echinochloa crus-galli); conditions: foliage application, AAH 320 g/ha, evaluated three weeks after application
# Summary of the method: (§1)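 Post-emergence foliar test in sterilized diluvial soil. Compound applied as water-diluted emulsion at a predetermined rate to 14-day-old plants; evaluation at three weeks.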
# barnyard grass [2] = assay: Test Example 4: herbicidal effect by soil treatment (Table 19, symbol H); assay type: in vivo, barnyard grass (Echinochloa crus-galli)
# Summary of the method: (§2)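 Scoring uses the grading scale of an earlier test, three weeks post-application. Treatment consists of spraying a diluted emulsion formulation across the surface of sterilized diluvial soil in which seeds are buried near 1.5 cm deep; boxes are kept in a greenhouse between 25° C. and 30° C.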
# green foxtail [3] = assay: Test Example 5: herbicidal effect by foliage application, plastic box (Table 20, symbol G); assay type: in vivo, green foxtail (Setaria viridis); conditions: foliage application, AAH 320 g/ha, evaluated three weeks after application
# Summary of the method: as §1
# lambsquarters [4] = assay: Test Example 4: herbicidal effect by soil treatment (Table 19, symbol O); assay type: in vivo, lambsquarters (Chenopodium album)
# Summary of the method: as §2
# lambsquarters [5] = assay: Test Example 5: herbicidal effect by foliage application, plastic box (Table 20, symbol O); assay type: in vivo, lambsquarters (Chenopodium album); conditions: foliage application, AAH 320 g/ha, evaluated three weeks after application
# Summary of the method: as §1
# wild oat [6] = assay: Test Example 4: herbicidal effect by soil treatment (Table 19, symbol I); assay type: in vivo, wild oat (Avena fatua)
# Summary of the method: as §2
# rice flat sedge = assay: Test Example 3: herbicidal effect by foliage application, Wagner pot (Table 18, symbol E); assay type: in vivo, rice flat sedge (Cyperus iria)
# Summary of the method: (§3)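 Plants were sown in alluvial soil held under 0.1–0.5 cm standing water and grown 14 days in a greenhouse at 25–30 °C. An emulsifiable formulation, water-diluted to the set dose, was then sprayed onto the foliage, and effects were scored three weeks later using previously defined criteria.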
# persian speedwell [7] = assay: Test Example 5: herbicidal effect by foliage application, plastic box (Table 20, symbol R); assay type: in vivo, Persian speedwell (Veronica persica); conditions: foliage application, AAH 320 g/ha, evaluated three weeks after application
# Summary of the method: as §1
# Chinese sprangletop = assay: Test Example 3: herbicidal effect by foliage application, Wagner pot (Table 18, symbol D); assay type: in vivo, chinese sprangletop (Leptochloa chinensis)
# Summary of the method: as §3
# windgrass [8] = assay: Test Example 4: herbicidal effect by soil treatment (Table 19, symbol L); assay type: in vivo, windgrass (Apera spica-venti); conditions: amount of applied herbicide 320 g/ha
# Excerpt: (§4) [Test Example 4] Herbicidal Effect Test by Soil Treatment
# (§5) Sterilized diluvial soil was placed in a plastic box having a length of 21 cm, a width of 13 cm, and a depth of 7 cm. The seeds of each of southern crabgrass, green foxtail, barnyard grass, wild oat, blackgrass, Italian ryegrass, windgrass, velvetleaf, redroot pigweed, lambsquarters, chickweed, false cleavers, persian speedwell, corn, soybean, rice, wheat, beet, and rapeseed were sowed in a spot-like manner and covered with the soil having a thickness of about 1.5 cm. Subsequently, the emulsion agent of the compound of the present invention prepared according to Formulation Example 2 was diluted with water so as to achieve a predetermined herbicide amount, and the diluted emulsion agent was uniformly applied to the surface of the soil with a small-sized spray. The plastic box was placed in a greenhouse at 25° C. to 30° C. for growth of the plants. Three weeks after the herbicide application, the effect of the herbicide on each plant was evaluated according to the criteria of Test Example 1.
# blackgrass [9] = assay: Test Example 5: herbicidal effect by foliage application, plastic box (Table 20, symbol J); assay type: in vivo, blackgrass (Alopecurus myosuroides); conditions: foliage application, AAH 320 g/ha, evaluated three weeks after application
# Summary of the method: as §1
# barnyard grass [10] = assay: Test Example 3: herbicidal effect by foliage application, Wagner pot (Table 18, symbol H); assay type: in vivo, barnyard grass (Echinochloa crus-galli)
# Summary of the method: as §3
# velvetleaf [11] = assay: Test Example 4: herbicidal effect by soil treatment (Table 19, symbol M); assay type: in vivo, velvetleaf (Abutilon theophrasti)
# Summary of the method: as §2
# redroot pigweed [12] = assay: Test Example 4: herbicidal effect by soil treatment (Table 19, symbol N); assay type: in vivo, redroot pigweed (Amaranthus retroflexus)
# Summary of the method: as §2
# southern crabgrass [13] = assay: Test Example 5: herbicidal effect by foliage application, plastic box (Table 20, symbol F); assay type: in vivo, southern crabgrass (Digitaria ciliaris); conditions: foliage application, AAH 320 g/ha, evaluated three weeks after application
# Summary of the method: as §1
# chickweed [14] = assay: Test Example 4: herbicidal effect by soil treatment (Table 19, symbol P); assay type: in vivo, common chickweed (Stellaria media)
# Summary of the method: as §2
# Italian ryegrass [15] = assay: Test Example 4: herbicidal effect by soil treatment (Table 19, symbol K); assay type: in vivo, Italian ryegrass (Lolium multiflorum)
# Excerpt: as §4, §5
# blackgrass [16] = assay: Test Example 4: herbicidal effect by soil treatment (Table 19, symbol J); assay type: in vivo, blackgrass (Alopecurus myosuroides)
# Summary of the method: as §2
# chickweed [17] = assay: Test Example 5: herbicidal effect by foliage application, plastic box (Table 20, symbol P); assay type: in vivo, common chickweed (Stellaria media); conditions: foliage application, AAH 320 g/ha, evaluated three weeks after application
# Summary of the method: as §1
# green foxtail [18] = assay: Test Example 4: herbicidal effect by soil treatment (Table 19, symbol G); assay type: in vivo, green foxtail (Setaria viridis)
# Summary of the method: as §2
# velvetleaf [19] = assay: Test Example 5: herbicidal effect by foliage application, plastic box (Table 20, symbol M); assay type: in vivo, velvetleaf (Abutilon theophrasti); conditions: foliage application, AAH 320 g/ha, evaluated three weeks after application
# Summary of the method: as §1
# Italian ryegrass [20] = assay: Test Example 5: herbicidal effect by foliage application, plastic box (Table 20, symbol K); assay type: in vivo, Italian ryegrass (Lolium multiflorum); conditions: foliage application, AAH 320 g/ha, evaluated three weeks after application
# Summary of the method: as §1
# redroot pigweed [21] = assay: Test Example 5: herbicidal effect by foliage application, plastic box (Table 20, symbol N); assay type: in vivo, redroot pigweed (Amaranthus retroflexus); conditions: foliage application, AAH 320 g/ha, evaluated three weeks after application
# Summary of the method: as §1
# wild oat [22] = assay: Test Example 5: herbicidal effect by foliage application, plastic box (Table 20, symbol I); assay type: in vivo, wild oat (Avena fatua); conditions: foliage application, AAH 320 g/ha, evaluated three weeks after application
# Summary of the method: as §1
# windgrass [23] = assay: Test Example 5: herbicidal effect by foliage application, plastic box (Table 20, symbol L); assay type: in vivo, windgrass (Apera spica-venti); conditions: foliage application, AAH 320 g/ha, evaluated three weeks after application
# Summary of the method: as §1
# southern crabgrass [24] = assay: Test Example 4: herbicidal effect by soil treatment (Table 19, symbol F); assay type: in vivo, southern crabgrass (Digitaria ciliaris)
# Summary of the method: as §2
# persian speedwell [25] = assay: Test Example 4: herbicidal effect by soil treatment (Table 19, symbol R); assay type: in vivo, Persian speedwell (Veronica persica); conditions: amount of applied herbicide 280 g/ha
# Excerpt: as §4, §5
# [26] = amount of applied herbicide 320 g/ha
# [27] = amount of applied herbicide 280 g/ha
structure (smiles),measurement,setting,value
COCCSc1ccc(-c2sc3ccc(F)cc3c2-c2c(O)c(C)nn(C)c2=O)cc1 [2-265],"H: barnyard grass, herbicidal effect (criteria 0-5)",barnyard grass [1],4 (Herbicidal rate of 70% or more and less than 90%)
same,herbicidal effect on H: barnyard grass,barnyard grass [2]; [26],2 (Herbicidal rate of 20% or more and less than 40%)
same,"G: green foxtail, herbicidal effect (criteria 0-5)",green foxtail [3],5 (Herbicidal rate of 90% or more (almost completely withered))
same,herbicidal effect on O: lambsquarters,lambsquarters [4]; [26],4 (Herbicidal rate of 70% or more and less than 90%)
same,"O: lambsquarters, herbicidal effect (criteria 0-5)",lambsquarters [5],4 (Herbicidal rate of 70% or more and less than 90%)
same,herbicidal effect on I: wild oat,wild oat [6]; [26],0 (Herbicidal rate of 5% or less (almost no effect))
same,herbicidal effect on E: rice flat sedge,rice flat sedge; [26],5 (Herbicidal rate of 90% or more (almost completely withered))
same,"R: persian speedwell, herbicidal effect (criteria 0-5)",persian speedwell [7],5 (Herbicidal rate of 90% or more (almost completely withered))
same,herbicidal effect on D: Chinese sprangletop,Chinese sprangletop; [26],4 (Herbicidal rate of 70% or more and less than 90%)
same,herbicidal effect on L: windgrass,windgrass [8],0 (Herbicidal rate of 5% or less (almost no effect))
same,"J: blackgrass, herbicidal effect (criteria 0-5)",blackgrass [9],0 (Herbicidal rate of 5% or less (almost no effect))
same,herbicidal effect on H: barnyard grass,barnyard grass [10]; [26],5 (Herbicidal rate of 90% or more (almost completely withered))
same,herbicidal effect on M: velvetleaf,velvetleaf [11]; [26],3 (Herbicidal rate of 40% or more and less than 70%)
same,herbicidal effect on N: redroot pigweed,redroot pigweed [12]; [26],5 (Herbicidal rate of 90% or more (almost completely withered))
same,"F: southern crabgrass, herbicidal effect (criteria 0-5)",southern crabgrass [13],4 (Herbicidal rate of 70% or more and less than 90%)
same,herbicidal effect on P: chickweed,chickweed [14]; [26],0 (Herbicidal rate of 5% or less (almost no effect))
same,herbicidal effect on K: Italian ryegrass,Italian ryegrass [15]; [26],0 (Herbicidal rate of 5% or less (almost no effect))
same,herbicidal effect on J: blackgrass,blackgrass [16]; [26],0 (Herbicidal rate of 5% or less (almost no effect))
same,"P: chickweed, herbicidal effect (criteria 0-5)",chickweed [17],5 (Herbicidal rate of 90% or more (almost completely withered))
same,herbicidal effect on G: green foxtail,green foxtail [18]; [26],4 (Herbicidal rate of 70% or more and less than 90%)
same,"M: velvetleaf, herbicidal effect (criteria 0-5)",velvetleaf [19],5 (Herbicidal rate of 90% or more (almost completely withered))
same,"K: Italian ryegrass, herbicidal effect (criteria 0-5)",Italian ryegrass [20],2 (Herbicidal rate of 20% or more and less than 40%)
same,"N: redroot pigweed, herbicidal effect (criteria 0-5)",redroot pigweed [21],5 (Herbicidal rate of 90% or more (almost completely withered))
same,"I: wild oat, herbicidal effect (criteria 0-5)",wild oat [22],3 (Herbicidal rate of 40% or more and less than 70%)
same,"L: windgrass, herbicidal effect (criteria 0-5)",windgrass [23],0 (Herbicidal rate of 5% or less (almost no effect))
same,herbicidal effect on F: southern crabgrass,southern crabgrass [24]; [26],3 (Herbicidal rate of 40% or more and less than 70%)
COc1cccc(-c2sc3ccc(F)cc3c2-c2c(O)c(C)nn(C)c2=O)n1 [2-382],"herbicidal effect, H: barnyard grass",barnyard grass [2]; [27],1 (Herbicidal rate of 5% or more and less than 20%)
same,"herbicidal effect, O: lambsquarters",lambsquarters [4]; [27],4 (Herbicidal rate of 70% or more and less than 90%)
same,"herbicidal effect, I: wild oat",wild oat [6]; [27],0 (Herbicidal rate of 5% or less (almost no effect))
same,herbicidal effect on E: rice flat sedge,rice flat sedge; [27],3 (Herbicidal rate of 40% or more and less than 70%)
same,herbicidal effect on D: Chinese sprangletop,Chinese sprangletop; [27],0 (Herbicidal rate of 5% or less (almost no effect))
same,herbicidal effect on H: barnyard grass,barnyard grass [10]; [27],0 (Herbicidal rate of 5% or less (almost no effect))
same,"herbicidal effect, M: velvetleaf",velvetleaf [11]; [27],1 (Herbicidal rate of 5% or more and less than 20%)
same,"herbicidal effect, N: redroot pigweed",redroot pigweed [12]; [27],4 (Herbicidal rate of 70% or more and less than 90%)
same,"herbicidal effect, P: chickweed",chickweed [14]; [27],4 (Herbicidal rate of 70% or more and less than 90%)
same,"herbicidal effect, K: Italian ryegrass",Italian ryegrass [15]; [27],1 (Herbicidal rate of 5% or more and less than 20%)
same,"herbicidal effect, J: blackgrass",blackgrass [16]; [27],0 (Herbicidal rate of 5% or less (almost no effect))
same,"herbicidal effect, R: persian speedwell",persian speedwell [25],4 (Herbicidal rate of 70% or more and less than 90%)
same,"herbicidal effect, G: green foxtail",green foxtail [18]; [27],0 (Herbicidal rate of 5% or less (almost no effect))
same,"herbicidal effect, F: southern crabgrass",southern crabgrass [24]; [27],0 (Herbicidal rate of 5% or less (almost no effect))
